Source: publication PMC6199744, “Development of Chemical Proteomics for the Folateome and Analysis of the Kinetoplastid Folateome” (ACS Infectious Diseases, 2018)
Where two headings read alike, the source gives them in different places.

Columns and labels:
Format in all cases: binding
[1] = biological target: T1, HeLa cell extract proteins (Homo sapiens, UniProt Q5BJD5); conditions: captured protein TMEM41B; HeLa
T1 construct: endogenous in cells; host or cells: HeLa cell extract
T1 sequence (Q5BJD5 1-291): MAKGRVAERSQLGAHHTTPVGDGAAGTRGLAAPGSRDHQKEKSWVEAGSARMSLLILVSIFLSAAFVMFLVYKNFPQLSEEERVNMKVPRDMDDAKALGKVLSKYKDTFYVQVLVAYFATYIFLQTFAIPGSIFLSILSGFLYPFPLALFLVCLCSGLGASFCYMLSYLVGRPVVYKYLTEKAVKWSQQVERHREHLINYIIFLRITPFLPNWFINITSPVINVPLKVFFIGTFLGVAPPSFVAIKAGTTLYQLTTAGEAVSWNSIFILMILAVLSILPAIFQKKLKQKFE

[2] = biological target: T2, HeLa cell extract proteins (Homo sapiens, UniProt Q9UJ70); conditions: captured protein NAGK; HeLa
T2 construct: endogenous in cells; host or cells: HeLa cell extract
T2 sequence (Q9UJ70 whole entry): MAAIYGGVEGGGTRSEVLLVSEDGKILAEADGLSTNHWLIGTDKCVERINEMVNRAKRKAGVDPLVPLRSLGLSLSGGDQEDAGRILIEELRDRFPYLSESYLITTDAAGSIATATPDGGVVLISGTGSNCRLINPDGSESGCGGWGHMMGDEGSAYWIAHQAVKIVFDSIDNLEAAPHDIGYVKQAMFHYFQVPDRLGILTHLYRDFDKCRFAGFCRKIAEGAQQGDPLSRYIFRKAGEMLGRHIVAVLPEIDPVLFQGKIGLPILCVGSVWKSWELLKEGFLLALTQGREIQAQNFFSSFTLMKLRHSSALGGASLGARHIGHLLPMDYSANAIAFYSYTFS

[3] = biological target: T3, HeLa cell extract proteins (Homo sapiens, UniProt P36957); conditions: protein DLST; HeLa
T3 construct: endogenous in cells; host or cells: HeLa cell extract
T3 sequence (P36957 68-453): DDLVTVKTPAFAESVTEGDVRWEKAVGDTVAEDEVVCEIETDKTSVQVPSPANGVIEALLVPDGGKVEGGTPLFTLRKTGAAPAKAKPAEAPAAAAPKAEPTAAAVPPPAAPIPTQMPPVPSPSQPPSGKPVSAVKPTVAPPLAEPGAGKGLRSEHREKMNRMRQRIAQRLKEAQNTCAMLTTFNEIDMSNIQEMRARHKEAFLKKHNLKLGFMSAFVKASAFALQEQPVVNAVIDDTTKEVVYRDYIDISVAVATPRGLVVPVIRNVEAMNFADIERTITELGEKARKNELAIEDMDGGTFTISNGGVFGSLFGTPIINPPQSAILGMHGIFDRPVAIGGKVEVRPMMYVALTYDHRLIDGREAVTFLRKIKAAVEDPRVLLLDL

[4] = biological target: T4, HeLa cell extract proteins (Homo sapiens, UniProt Q9Y316); conditions: HeLa; protein MEMO1
T4 construct: endogenous in cells; host or cells: HeLa cell extract
T4 sequence (Q9Y316 1-297): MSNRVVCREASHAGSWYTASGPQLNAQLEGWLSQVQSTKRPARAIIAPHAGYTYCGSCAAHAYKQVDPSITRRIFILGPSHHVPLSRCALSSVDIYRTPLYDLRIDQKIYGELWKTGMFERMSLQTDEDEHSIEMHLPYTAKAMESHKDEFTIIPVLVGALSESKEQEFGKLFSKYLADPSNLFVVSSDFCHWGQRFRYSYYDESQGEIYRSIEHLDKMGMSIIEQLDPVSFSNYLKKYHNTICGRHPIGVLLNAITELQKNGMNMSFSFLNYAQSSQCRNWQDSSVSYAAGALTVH

[5] = biological target: T5, HeLa cell extract proteins (Homo sapiens, UniProt Q969Y2); conditions: captured protein GTPBP3; HeLa
T5 construct: endogenous in cells; host or cells: HeLa cell extract
T5 sequence (Q969Y2 21-492): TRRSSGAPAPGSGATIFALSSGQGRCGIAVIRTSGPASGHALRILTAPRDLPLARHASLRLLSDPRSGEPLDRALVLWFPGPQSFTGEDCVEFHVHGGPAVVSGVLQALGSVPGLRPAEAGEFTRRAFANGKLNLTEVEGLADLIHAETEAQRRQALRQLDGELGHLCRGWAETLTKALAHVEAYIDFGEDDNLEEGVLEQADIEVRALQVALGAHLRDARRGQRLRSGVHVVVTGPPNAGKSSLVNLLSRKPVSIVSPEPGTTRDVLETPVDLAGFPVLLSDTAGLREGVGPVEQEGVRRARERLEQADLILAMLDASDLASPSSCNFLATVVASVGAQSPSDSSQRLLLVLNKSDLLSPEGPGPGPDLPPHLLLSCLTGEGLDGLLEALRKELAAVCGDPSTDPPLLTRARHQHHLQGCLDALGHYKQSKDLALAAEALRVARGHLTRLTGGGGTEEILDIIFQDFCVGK

[6] = biological target: T6, HeLa cell extract proteins (Homo sapiens, UniProt Q96S59)
T6 construct: endogenous in cells; host or cells: HeLa cell extract
T6 sequence (Q96S59 whole entry): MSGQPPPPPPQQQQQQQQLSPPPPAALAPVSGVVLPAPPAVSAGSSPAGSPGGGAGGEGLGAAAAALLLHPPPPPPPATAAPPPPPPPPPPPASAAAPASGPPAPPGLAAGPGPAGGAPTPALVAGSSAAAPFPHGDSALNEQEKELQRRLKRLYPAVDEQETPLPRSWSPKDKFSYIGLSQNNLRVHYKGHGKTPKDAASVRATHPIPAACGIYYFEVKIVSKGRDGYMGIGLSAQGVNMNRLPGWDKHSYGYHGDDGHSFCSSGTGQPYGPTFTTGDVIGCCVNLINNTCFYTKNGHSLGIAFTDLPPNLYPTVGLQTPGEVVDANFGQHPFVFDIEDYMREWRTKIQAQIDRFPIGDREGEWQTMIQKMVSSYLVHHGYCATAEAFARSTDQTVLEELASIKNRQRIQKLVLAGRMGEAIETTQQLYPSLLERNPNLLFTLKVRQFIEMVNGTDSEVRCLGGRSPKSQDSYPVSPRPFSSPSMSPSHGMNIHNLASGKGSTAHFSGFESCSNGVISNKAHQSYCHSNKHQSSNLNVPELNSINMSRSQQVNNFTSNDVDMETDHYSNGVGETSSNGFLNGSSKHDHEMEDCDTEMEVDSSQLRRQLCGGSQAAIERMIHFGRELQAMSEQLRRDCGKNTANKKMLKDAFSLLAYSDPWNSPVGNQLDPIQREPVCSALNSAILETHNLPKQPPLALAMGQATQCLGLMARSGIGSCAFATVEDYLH

[7] = biological target: T7, HeLa cell extract proteins (Homo sapiens, UniProt P11498)
T7 construct: endogenous in cells; host or cells: HeLa cell extract
T7 sequence (P11498 21-1178): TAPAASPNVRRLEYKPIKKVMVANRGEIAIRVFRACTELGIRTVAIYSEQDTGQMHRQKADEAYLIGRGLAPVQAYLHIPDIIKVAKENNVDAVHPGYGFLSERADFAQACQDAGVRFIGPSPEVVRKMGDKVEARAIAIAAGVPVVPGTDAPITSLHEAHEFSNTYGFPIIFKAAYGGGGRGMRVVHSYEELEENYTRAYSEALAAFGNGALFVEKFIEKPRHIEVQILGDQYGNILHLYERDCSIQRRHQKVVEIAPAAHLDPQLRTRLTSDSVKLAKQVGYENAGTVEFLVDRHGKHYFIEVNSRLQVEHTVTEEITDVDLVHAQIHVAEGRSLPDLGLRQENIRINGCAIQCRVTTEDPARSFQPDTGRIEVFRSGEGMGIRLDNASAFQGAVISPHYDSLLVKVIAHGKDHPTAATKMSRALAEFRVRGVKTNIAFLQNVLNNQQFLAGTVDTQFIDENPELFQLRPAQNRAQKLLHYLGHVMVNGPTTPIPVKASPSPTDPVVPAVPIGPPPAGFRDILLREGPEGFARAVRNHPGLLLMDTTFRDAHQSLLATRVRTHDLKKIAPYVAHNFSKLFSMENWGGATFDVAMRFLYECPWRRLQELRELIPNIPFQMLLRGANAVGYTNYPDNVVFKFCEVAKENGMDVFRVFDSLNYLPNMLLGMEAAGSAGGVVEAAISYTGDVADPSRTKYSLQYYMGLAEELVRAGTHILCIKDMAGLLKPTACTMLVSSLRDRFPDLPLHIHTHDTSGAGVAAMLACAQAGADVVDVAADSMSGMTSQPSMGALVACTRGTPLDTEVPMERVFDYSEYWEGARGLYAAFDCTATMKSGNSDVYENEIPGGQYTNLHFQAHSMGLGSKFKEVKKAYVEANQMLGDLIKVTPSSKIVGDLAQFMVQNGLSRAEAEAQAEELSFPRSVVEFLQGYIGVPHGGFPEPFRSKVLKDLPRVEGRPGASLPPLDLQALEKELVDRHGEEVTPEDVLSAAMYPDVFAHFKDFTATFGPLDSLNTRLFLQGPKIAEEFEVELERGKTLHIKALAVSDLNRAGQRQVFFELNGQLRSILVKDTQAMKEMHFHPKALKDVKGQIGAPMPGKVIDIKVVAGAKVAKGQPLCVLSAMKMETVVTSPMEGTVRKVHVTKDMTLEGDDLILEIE

[8] = biological target: T8, HeLa cell extract proteins (Homo sapiens, UniProt O00231)
T8 construct: endogenous in cells; host or cells: HeLa cell extract
T8 sequence (O00231 whole entry): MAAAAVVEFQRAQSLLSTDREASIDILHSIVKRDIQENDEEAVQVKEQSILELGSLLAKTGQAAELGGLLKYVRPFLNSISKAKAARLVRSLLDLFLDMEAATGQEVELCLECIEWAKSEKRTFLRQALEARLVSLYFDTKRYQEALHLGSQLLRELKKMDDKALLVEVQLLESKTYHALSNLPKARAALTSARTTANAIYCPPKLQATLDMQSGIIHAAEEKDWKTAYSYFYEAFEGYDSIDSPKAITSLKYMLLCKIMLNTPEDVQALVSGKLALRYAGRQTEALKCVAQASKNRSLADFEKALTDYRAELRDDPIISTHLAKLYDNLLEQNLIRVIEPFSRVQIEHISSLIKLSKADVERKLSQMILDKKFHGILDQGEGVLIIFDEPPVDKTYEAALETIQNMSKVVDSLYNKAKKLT

| SMILES | fold changes relative to vehicle control [1] | fold changes relative to vehicle control [2] | fold changes relative to vehicle control [3] | fold changes relative to vehicle control [4] | fold changes relative to vehicle control [5] | fold changes relative to vehicle control ([6]; protein RANBP9, HeLa) | fold changes relative to vehicle control ([7]; protein PC, HeLa) | fold changes relative to vehicle control ([8]; protein PSMD11, HeLa) | fold changes relative to vehicle control [6] | fold changes relative to vehicle control [7] | fold changes relative to vehicle control [8] |
| --- | --- | --- | --- | --- | --- | --- | --- | --- | --- | --- | --- |
| Nc1nc2cccc(-c3ccccc3)c2n1Cc1ccc(Cl)c(Cl)c1 [compound 3] | 1.08 | 0.77 | 1.17 | 1 | 0.95 |  |  |  |  |  |  |
| CCCCCCOc1ccc(Cc2cnc(N)nc2N)cc1 [compound 1] | 1.09 | 0.83 | 1.31 | 0.97 | 0.4 |  |  |  |  |  |  |
| NCCCNc1ccc(C(=O)NC(CCC(=O)O)C(=O)O)cc1 (stereo not drawn) [compound 7] |  |  |  |  |  | 1.65 | 1.1 | 0.9 |  |  |  |
| CCCCCCOc1cccc(Cc2cnc(N)nc2N)c1 [compound 2] | 1.09 | 1.2 | 1.34 | 0.87 | 1.05 |  |  |  |  |  |  |
| NCCOCCOCC(=O)Nc1nc2ncc(CNc3ccc(C(=O)NC(CCC(=O)O)C(=O)O)cc3)nc2c(=O)[nH]1 (stereo not drawn) [compound 6] |  |  |  |  |  | 0.96 | 0.97 | 1.11 |  |  |  |
| Nc1nc2[nH]cc(CCc3ccc(C(=O)N[C@@H](CCC(=O)O)C(=O)O)cc3)c2c(=O)[nH]1 [PTX, pemetrexed] |  |  |  |  |  |  |  |  | 1.05 | 0.69 | 1.02 |
| Nc1nc2c(c(=O)[nH]1)N(C=O)C(CNc1ccc(C(=O)N[C@@H](CCC(=O)O)C(=O)O)cc1)CN2 (stereo partly drawn) [LEU, leucovorin] |  |  |  |  |  | 1.03 | 0.8 | 1.03 |  |  |  |
